{"source": "patent US20140294856A1", "about": "“COMBINATION TREATMENT COMPRISING A HDAC6 INHIBITOR AND AN AKT INHIBITOR” (priority 2011, published 2014)", "key": {"SH-SY5Y": {"tested_on": "SH-SY5Y", "test": "Growth inhibition, SRB assay, 72 hours", "format": "cell-based", "conditions": "SH-SY5Y neuroblastoma"}, "HCT116 xenograft": {"tested_on": "HCT116 xenograft", "test": "[18F]FLT-PET tumour uptake", "format": "in vivo, mice", "experimental": "FIG. 6. [18F]-FLT uptake at 24 h and 48 h following a single injection I.P. of HDAC-C1A at 40 mg/kg in HCT116 xenograft model. A. PET/CT (bottom) and corresponding CT (top) images of the [18]-FLT uptake. […] The tumour is indicated by an arrow. B. Area under the curve data. The results are the mean+/−SEM of at least 4 animals per group.\nFIG. 13. […] A. relative tumour volume to day 1. […] B. Corresponding body weights throughout the course of the experiment. […] C. Time activity curve represent [18F]FLT uptake over 60 minutes. Results are mean of at least 3 animals. D. Area under the curve, [18F]FLT uptake in the tumour over 60 minutes. E. NUV60, [18F]FLT uptake in the tumour at 60 minutes. […] The levels of total AKT are represented as loading control.\nFIG. 16. [18F]FLT uptake following treatment with BEZ235 and in combination with HDAC-C1A after 48 hours in a HCT116 xenograft model. Mice were treated with either BEZ235 alone at 20 mg/kg/day for 2 days P.O., with 1HDACC1A at 20 mg/kg/day for 2 days I.P. or with a combination HDAC-C1A (20 mg/kg/day for 1 or 2 days)+BEZ-235 (20 mg/kg/day for 1 or 2 days). BEZ235 was given first and 30 min later, mice received an injection of HDAC-C1A. A. time activity curve represent [18F]FLT uptake over 60 minutes. Results are mean of at least 3 animals. B. Area under the curve, [18F]FLT uptake in the tumour over 60 minutes. C. NUV60, [18F]FLT uptake in the tumour at 60 minutes. D. Cross section (axial plane) of mice representative of different treatment cohorts. The top pictures show [18F]FLT uptake pictures (PET/CT), the bottom represent the corresponding CT scan. The arrows point the tumour.\nWe also assessed the potential of [^18F]fluorothymidine positron emission tomography ([^18F]FLT-PET) to measure early response to HDAC-C1A treatment in HCT116 xenograft bearing mice (FIG. 6). There was a 2-fold decrease in tumour [^18F]FLT uptake in animals treated continuously for 48 h compared to vehicle treated controls; the area under the normalized [^18F]FLT time versus activity curve was 117±6.9 before treatment and decreased to 106±5.5 (P=0.02) at 24 hours and 54±5 (P=0.0001) at 48 hours after initiating treatment (FIG. 6.B).\nThe efficacy of the combination HDAC-C1A (20 mg/kg/day) and BEZ235 ([…]) could be monitored with [^18F]FLT-PET in HCT116 tumour bearing mice as early as 24H-48H. There was a 1.7-fold decrease in tumour [^18F]FLT uptake in animals treated continuously for 24 h-48 h compared to vehicle treated controls; the area under the normalized [^18F]FLT time versus activity curve was 542±17 before treatment and decreased to 312±22 (P=0.0002) at 24-48 hours after initiating treatment (FIG. 16.B)."}, "ABC transporters": {"tested_on": "ABC transporters", "test": "Expression of ABC transporters (protein and mRNA) in tumours", "format": "in vivo, mice", "conditions": "14 days of treatment"}, "A549 cells": {"tested_on": "A549 cells", "test": "Impact of BSO (GSH depletion) on growth inhibition, SRB assay", "format": "cell-based", "conditions": "10 μM BSO for 24 hours"}, "MCF7": {"tested_on": "MCF7", "test": "Phospho-AKT levels by western blotting", "format": "cell-based", "conditions": "breast cancer cell line MCF7"}, "Ishikawa": {"tested_on": "Ishikawa", "test": "Phospho-AKT levels by western blotting", "format": "cell-based", "conditions": "endometrial cancer cell line Ishikawa (PTEN-null)"}, "HCT116 cells": {"tested_on": "HCT116 cells", "test": "Acetylated PTEN and PTEN expression", "format": "cell-based, human", "experimental": "FIG. 12. HDAC-C1A treatment is associated with an increase of phopsho-AKT that can be reversed by PI3K/AKT/mTOR inhibitors. […] Similarly, Phospho-Pras 40 seems to increase following treatment with HDAC-C1A. Densitometry data could reinforce this statement (ratio between the total form and the Phospho form of Pras40 that decreases at 24 hours). […] No difference could be seen in endometrial cancer cell line, […]. C. […] E. BEZ-235 can fully reverse the increase of Phospho-AKT mediated by HDAC-C1A in HCT-116 cells. BEZ-235 and HDAC-C1A were co-incubated at the indicated time and concentrations.\nFIG. 17. A. Dose and time impact of Tubastatin A on acetylated form of tubulin and histones H3 and H4 and on phospho-AKT levels that could be reversed with BEZ-235 in HCT-116 cells. […] HCT116 were immunoprecipitation with PTEN and stained with HDAC1 or HDAC6, immunoprecipitation with HDAC6 and stained with PTEN. No HDAC1 could have been detected in contrast with HDAC6. There was no effect of the different inhibitors on the different protein levels.\nPTEN protein expression was not altered. In vivo, on the gene array, the mRNA levels of PTEN were not altered in HCT116 xenograft model following treatment with HDAC-C1A after 1 and 14 days when compared with vehicle treated group (FIG. 7).\nWe have shown that HDAC-C1A is associated with increased acetylation of α-tubulin, acetyl HSP90 and acetyl PTEN with only a minor effect on the regulation of the genes (less than 0.7% of the genes have been de-regulated after 14 days of treatment in vivo). We believe that the acetylation of PTEN, via the inhibition of HDAC6, leads to an increase of P-AKT. […] No effect of BEZ235 could be seen on the acetylated status of α-tubulin and histones H3 and H4."}, "γH2AX": {"tested_on": "γH2AX", "test": "γH2AX foci formation (DNA damage marker)", "conditions": "in vitro and in vivo"}, "P-gp": {"molecular_target": "P-gp (Homo sapiens, UniProt P08183)", "sequence (P08183 whole entry)": "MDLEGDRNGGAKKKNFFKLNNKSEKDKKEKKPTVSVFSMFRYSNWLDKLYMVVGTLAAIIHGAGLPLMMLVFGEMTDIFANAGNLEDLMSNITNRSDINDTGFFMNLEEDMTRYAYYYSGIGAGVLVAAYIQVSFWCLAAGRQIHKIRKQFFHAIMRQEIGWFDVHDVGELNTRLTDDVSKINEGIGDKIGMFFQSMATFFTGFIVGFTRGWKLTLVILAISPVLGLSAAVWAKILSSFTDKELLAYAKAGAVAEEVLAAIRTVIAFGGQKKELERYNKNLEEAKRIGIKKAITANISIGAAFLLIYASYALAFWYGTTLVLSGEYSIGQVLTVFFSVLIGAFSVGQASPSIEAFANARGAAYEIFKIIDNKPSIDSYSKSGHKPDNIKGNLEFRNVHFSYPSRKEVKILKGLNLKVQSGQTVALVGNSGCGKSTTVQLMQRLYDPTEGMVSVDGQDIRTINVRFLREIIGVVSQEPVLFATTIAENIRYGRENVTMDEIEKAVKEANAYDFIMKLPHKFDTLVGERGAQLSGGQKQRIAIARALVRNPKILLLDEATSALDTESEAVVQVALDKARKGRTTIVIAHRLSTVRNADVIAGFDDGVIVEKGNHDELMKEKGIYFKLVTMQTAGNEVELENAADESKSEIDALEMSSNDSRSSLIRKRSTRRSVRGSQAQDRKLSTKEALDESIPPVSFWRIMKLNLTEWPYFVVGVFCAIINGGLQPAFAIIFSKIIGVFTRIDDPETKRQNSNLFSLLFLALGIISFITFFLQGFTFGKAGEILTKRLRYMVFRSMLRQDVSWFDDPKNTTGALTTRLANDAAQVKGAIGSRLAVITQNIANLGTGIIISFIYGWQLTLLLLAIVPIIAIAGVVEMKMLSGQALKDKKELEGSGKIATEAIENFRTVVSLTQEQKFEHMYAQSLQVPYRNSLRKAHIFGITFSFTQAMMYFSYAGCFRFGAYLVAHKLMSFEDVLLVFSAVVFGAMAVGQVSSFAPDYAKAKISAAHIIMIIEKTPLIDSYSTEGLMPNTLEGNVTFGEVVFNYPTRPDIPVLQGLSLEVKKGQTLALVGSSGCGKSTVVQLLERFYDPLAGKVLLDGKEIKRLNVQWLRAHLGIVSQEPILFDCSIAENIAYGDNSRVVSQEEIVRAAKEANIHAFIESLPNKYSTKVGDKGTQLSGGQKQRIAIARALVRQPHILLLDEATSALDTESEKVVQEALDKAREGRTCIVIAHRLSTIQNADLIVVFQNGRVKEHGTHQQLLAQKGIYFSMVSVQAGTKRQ"}}, "data": [{"smiles": "CC(/C=C/C(=O)NO)=C\\c1ccc(NS(=O)(=O)c2ccc(N(CCCl)CCCl)cc2)cc1", "note": "[HDAC-C1A]", "values": [{"measurement": "GI50", "setting": "SH-SY5Y", "value": 0.09, "unit": "µg/mL"}, {"measurement": "[18F]FLT-PET in comparison to control animals", "setting": "HCT116 xenograft; 48 H, HDAC-C1A 40 mg/kg combined with API-2 1 mg/kg", "value": "unremarkable"}, {"measurement": "area under the normalized [18F]FLT time versus activity curve", "setting": "HCT116 xenograft; 24 hours after initiating treatment, 117±6.9 before treatment", "value": "106±5.5"}, {"measurement": "area under the normalized [18F]FLT time versus activity curve", "setting": "HCT116 xenograft; 48 hours after initiating treatment, 117±6.9 before treatment", "value": "54±5"}, {"measurement": "fold decrease in tumour [18F]FLT uptake vs vehicle", "setting": "HCT116 xenograft; HDAC-C1A 20 mg/kg/day combined with BEZ235 25 mg/kg/day, 24 h-48 h", "value": 1.7, "unit": "fold"}, {"measurement": "area under the normalized [18F]FLT time versus activity curve", "setting": "HCT116 xenograft; HDAC-C1A combined with BEZ235, 24-48 hours, 542±17 before treatment", "value": "312±22"}, {"measurement": "fold decrease in tumour [18F]FLT uptake vs vehicle", "setting": "HCT116 xenograft; treated continuously for 48 h, 40 mg/kg", "value": 2, "unit": "fold"}, {"measurement": "expression of ABC transporters vs vehicle", "setting": "ABC transporters", "value": "No difference"}, {"measurement": "impact of BSO on growth inhibition (GI50 ratio)", "setting": "A549 cells", "value": "No difference"}, {"measurement": "P-AKT levels", "setting": "MCF7", "value": "increased"}, {"measurement": "P-AKT levels increased", "setting": "Ishikawa", "value": "not"}, {"measurement": "PTEN protein expression", "setting": "HCT116 cells", "value": "not altered"}, {"measurement": "acetyl form of PTEN", "setting": "HCT116 cells; 4 h and 24 h, 1 μM and 10 μM", "value": "dose and time dependent increase"}, {"measurement": "γH2AX foci formation", "setting": "γH2AX", "value": "time and a dose dependent increase"}, {"measurement": "fold resistance (GI50 ratio) P-gp over-expressing 3T3 vs parental", "setting": "P-gp", "value": 17, "unit": "fold"}]}]}
